pIC50: −log10 of the molar value. Where two headings read alike, the source gives them in different places.
Biological target: T1, GST-YTHDF2 (Homo sapiens, UniProt Q9Y5A9)
T1 construct: made in house
T1 sequence (Q9Y5A9 1-579): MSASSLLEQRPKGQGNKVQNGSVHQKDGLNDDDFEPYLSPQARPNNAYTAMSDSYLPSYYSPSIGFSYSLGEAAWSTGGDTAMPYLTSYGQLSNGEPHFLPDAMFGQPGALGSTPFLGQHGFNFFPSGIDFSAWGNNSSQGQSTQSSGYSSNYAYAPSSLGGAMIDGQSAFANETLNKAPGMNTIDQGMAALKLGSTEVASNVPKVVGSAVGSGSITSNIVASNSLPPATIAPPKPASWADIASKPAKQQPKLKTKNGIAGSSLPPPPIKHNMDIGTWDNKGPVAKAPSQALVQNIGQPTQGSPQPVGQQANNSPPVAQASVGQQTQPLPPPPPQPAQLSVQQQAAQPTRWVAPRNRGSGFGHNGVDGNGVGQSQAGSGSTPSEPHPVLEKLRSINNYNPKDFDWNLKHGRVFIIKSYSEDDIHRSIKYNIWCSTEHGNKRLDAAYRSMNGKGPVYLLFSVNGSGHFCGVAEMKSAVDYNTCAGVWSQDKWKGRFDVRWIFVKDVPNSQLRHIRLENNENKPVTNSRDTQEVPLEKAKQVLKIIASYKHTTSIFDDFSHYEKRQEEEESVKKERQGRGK
Experiment: HTRF-based binding assay, competition with m6A-oligoRNA, DF2
Settings: for Residual signal at 1 mM concentration: HTRF, 1 mM compound, relative to control, average of two technical replicates, * = interference with the assay; for LE (ligand efficiency, DF2): LE = -RT ln IC50/HAC from HTRF IC50

[1] = dose-response, competitor m6A-oligoRNA, read-out: DF2 IC50 (HTRF assay)

Structure (SMILES) | Residual signal at 1 mM concentration [%] | pIC50 | LE (ligand efficiency, DF2) | pIC50 [1]
CC(=O)Nc1nnc(C=Cc2cccc([N+](=O)[O-])c2)s1 (mixture of isomers) [Compound S17] | 77 |  |  | 
CC=CC=C1C(=O)NC(=S)NC1=O [Compound 1] | 26 | 4.72 | 0.50 kcal/(mol HAC) | 
Cc1ccccc1NN=C1C(=O)NC(=S)NC1=O [Compound 2] | 12 | 3.77 | 0.29 kcal/(mol HAC) | 
CNc1cc(=O)[nH]c(=O)[nH]1 [Compound 4] | 18 |  | 0.49 kcal/(mol HAC) | 3.60
CNc1ncccc1C(N)=O [Compound 5] | 88 |  |  | 
Cc1[nH]nc2ncnc(N)c12 [Compound 6] | 80 |  |  | 
CN(C)c1ccc(C=C2C(=O)NC(=S)NC2=O)cc1 [Compound 7] |  | 4.68 | 0.34 kcal/(mol HAC) | 
O=C1NC(=S)NC(=O)C1=NNc1cccc(C(=O)O)c1 [Compound 8] | 5 | 5.22 | 0.36 kcal/(mol HAC) | 
Cc1cccc(NC=C2C(=O)NC(=S)NC2=O)n1 [Compound 9] |  | 4.52 | 0.34 kcal/(mol HAC) | 
COc1ccc(C=C2C(=O)NC(=S)NC2=O)cc1C [Compound 10] | 48 | 4.55 | 0.33 kcal/(mol HAC) | 
CC=CC=C1C(=O)NC(=O)NC1=O [Compound 11] | 30 | 4.54 | 0.48 kcal/(mol HAC) | 
COc1ccc(NC=C2C(=O)NC(=O)NC2=O)cc1 [Compound 12] |  | 4.40 | 0.32 kcal/(mol HAC) | 
O=c1cn[nH]c(=S)[nH]1 [Compound 13] | 5 |  | 0.73 kcal/(mol HAC) | 4.28
O=c1[nH]c(=S)[nH]c2n[nH]cc12 [Compound 15] | 17 |  | 0.51 kcal/(mol HAC) | 4.07
O=c1[nH]c(=S)[nH]c2nc[nH]c12 [Compound 16] | 2 |  | 0.56 kcal/(mol HAC) | 4.52
Cc1cc(=O)c(OCc2ccc(F)cc2)c[nH]1 [Compound S1] | 31 |  |  | 3.51

Structure (SMILES) | Residual signal at 1 mM concentration [%] | pIC50 | LE (ligand efficiency, DF2) | pIC50 [1]
Cc1cc(O)c(OCC(=O)N=c2[nH]cc(C)s2)cn1 [Compound S6] | 60 |  |  | 
CCSc1nnc(NC(C)=O)s1 [Compound S7] | 60 |  |  | 
Cc1nc(O)c(C=Nc2ccc(Cl)cc2)c(O)n1 [Compound S8] | 21 |  |  | 
CC(=O)N=c1[nH]nc(SCC(=O)NC2CCCCC2)s1 [Compound S10] | 50 |  |  | 
COc1cc2[nH]c(=O)[nH]c(=O)c2cc1OC [Compound S12] | 60 |  |  | 
Cc1cc(O)c2[nH]ncc2n1 [Compound S13] | 62 |  |  | 
COC(=O)CNC(=O)COc1c[nH]c(C)cc1=O [Compound S15] | 75 |  |  | 
C=CCc1cccc(C=Nc2c[nH]c(=O)[nH]c2=O)c1O [Compound S18] | 79 |  |  | 
CN(C)c1cc(=O)[nH]c(=O)[nH]1 [Compound S19] | 85 |  |  | 
O=C(Nc1nccs1)C(F)(F)F [Compound S20] | 87 |  |  | 
Oc1ccnc(OC(F)F)c1 [Compound S21] | 87 |  |  | 
Cc1cc(=O)c2sccc2[nH]1 [Compound S22] | 89 |  |  | 
OCCNc1ccc(Cl)nn1 [Compound S23] | > 90 |  |  | 
O=C(Nc1nnc[nH]1)C1CC1 [Compound S24] | > 90 |  |  | 
CC(O)c1nc2cc(-c3cc(F)cc(Cl)c3)ccc2[nH]1 (centres unmarked) [Compound S25] | > 90 |  |  | 

Reference: paper PMC12371494, “Discovery of YTHDF2 Ligands by Fragment-Based Design” (ACS Bio & Med Chem Au, 2025)
